Reference: patent publication US20100273806A1, “TETRAHYDROCYCLOPENTA[B]INDOL-3-YL CARBOXYLIC ACID DERIVATIVES USEFUL IN THE TREATMENT OF AUTOIMMUNE AND INFLAMMATORY DISORDERS” (ARENA PHARMACEUTICALS, INC., priority 2007, published 2010)

Assays:
[1] = test system: C57BL/6 mice (recipients of Balbc/J skin grafts); test: Mouse skin allograft survival; format: in vivo; settings: 3, 10 and 30 mg/kg orally once a day, compared with vehicle; FIG. 3
Description: Animals: Female BALBc/J mice (6 to 7 weeks of age at start of study) (Jackson Laboratory, Bar Harbor, Me.) were housed four per cage and maintained in a humidity- (40-60%) and temperature- (68-72° F.) controlled facility on a 12 h:12 h light/dark cycle (lights on at 6:30 am) with free access to food (Harlan Teklad, Orange, Calif., Rodent Diet 8604) and water. Female C57BL/6 mice (8 to 10 weeks of age at start of study) (Jackson Laboratory, Bar Harbor, Me.) were similarly housed and maintained. Mice were allowed one week of habituation to the animal facility before testing. […]
Clinical scoring: Skin allografts were inspected and digital images recorded daily until rejection, which was defined as the first day on which more than 80% of the graft is necrotic. […] In an optional related study, on posttransplantation day 5 isolated lymphocytes from peripheral lymph nodes and spleen were counted and characterized for activation markers (e.g., T-cell activation markers) by flow cytometry. Also on day 5, grafts were removed from transplanted recipients, cut into small fragments, digested with collagenase and sedimented over Ficoll-Paque (Pharmacia Biotech, Uppsala, Sweden) to isolate graft-infiltrating lymphocytes, which were counted and characterized for activation markers (e.g., T-cell activation markers) by flow cytometry. […]

Female C57BL/6 mice = test: MOG-induced EAE in mice; format: in vivo, mouse; settings: 30 mg/kg orally once a day from day 3 until day 21, compared with vehicle; FIG. 5
Description: Animals: Female C57BL/6 mice (8 to 10 weeks of age at start of study) (Jackson Laboratory, Bar Harbor, Me.) were housed four per cage and maintained in a humidity- (40-60%) and temperature- (68-72° F.) controlled facility on a 12 h:12 h light/dark cycle (lights on at 6:30 am) with free access to food (Harlan Teklad, Orange, Calif., Rodent Diet 8604) and water. Mice were allowed one week of habituation to the animal facility before testing.
Induction of EAE: Mice were immunized subcutaneously, 50 μL per hind flank, with a total of 100 μg MOG35-55peptide emulsified 1:1 with Complete Freund's adjuvant containing 4 mg/ml heat-killed Mycobacterium tuberculosis. Mice also received 200 ng pertussis toxin intraperitoneally on the day of immunization and 48 h later.
Clinical scoring: Severity of disease symptoms was scored as follows (in increasing order of severity): 0=normal; 1=limp tail OR hind limb weakness; 2=limp tail AND limb weakness/weakness of 2 or more limbs; 3=severe limb weakness or single limb paralysis; 4=paralysis of 2 or more limbs; 5=death.
Drug treatment: Mice were dosed orally, with vehicle or test compound, once a day from day 3 until day 21. Dosing volume is 5 ml/kg. Test compound was dosed at 30 mg/kg. […] Mice were monitored daily from day 7 onward for disease symptoms. After the last dose on day 21, disease progression was monitored daily for 2 more weeks.

female NOD/Ltj mice = test: Cyclophosphamide induced type I diabetes in NOD mice; format: in vivo, mouse; settings: 30 mg/kg orally once a day from day 0 until day 25, compared with vehicle; FIG. 6
Description: Animals: Baseline blood glucose measurements were taken from 9-10 week old female NOD/Ltj mice (Jackson Laboratory, Bar Harbor, Me.) to ensure that they were normoglycemic (blood glucose is 80-120 mg/dL) prior to initiation of the experiment. Blood glucose was measured from tail bleeds using a one touch ultra kit and test strips (LifeScan, Milpitas, Calif.).
Cyclophosphamide induction of Type I diabetes: On day 0 and day 14, normoglycemic NOD mice were injected intraperitoneally with 4 mg cyclophosphamide monohydrate (200 mg/kg) dissolved in 0.9% saline. If mice were diabetic (blood glucose is >250 mg/dL) they were not given a booster dose of cyclophosphamide on day 14.
Drug Treatment: Mice were dosed orally, with vehicle or test compound, once a day from day 0 until day 25. Compounds were suspended in 0.5% methyl cellulose vehicle using a sonicator to ensure uniform suspension. Mice were weighed twice weekly and were dosed according to weight. Dosing volume was 5 mL/kg. Test compound was dosed at 30 mg/kg. Blood glucose was measured twice weekly. After dosing was completed at day 25, the mice continued to be monitored and blood glucose measurements were taken once a week for 3 weeks.

Female Lewis rats = test: Collagen-induced arthritis in rats (ankle diameter); format: in vivo, rat; settings: 3, 10 and 30 mg/kg p.o., q.d., day 0 through day 16, compared with vehicle; FIG. 4
Description: Female Lewis rats were used in this study. Acclimated animals were anesthetized with isoflurane and given the first collagen injection (day 0). On day 6, they were anesthetized again for the second collagen injection. Collagen was prepared by making a 4 mg/mL solution in 0.01 N acetic acid. Equal volumes of collagen and incomplete Freund's adjuvant were emulsified by hand mixing until a bead of this material held its form when placed in water. Each animal received 300 μL of the mixture each time, spread over 3 subcutaneous sites on the back.
Treatment (p.o., q.d., 5 mL/kg dosing volume) began on day 0 and continued through day 16 with vehicle or compounds given at 24 h intervals. Rats were weighed on days 0, 3, 6 and 9 through 17 and caliper measurements of the ankles taken on days 9 through 17. The 2nd enantiomer of Compound 7 (isolated after resolution of compound 7 by HPLC, with a retention time of 24 min per the conditions reported in Example 1.22) was dosed at 3, 10 and 30 mg/kg.

[2] = test system: experimental autoimmune uveoretinitis; settings: short-term high dose; cited from earlier work
[3] = test system: patients with multiple sclerosis; settings: Phase II, relapsing-remitting multiple sclerosis; cited from earlier work
S1P3 receptor = S1P3 receptor (Homo sapiens, UniProt Q99500); settings: due to its agonism of the S1P3 receptor; cited from earlier work
mice = settings: oral administration to mice; cited from earlier work
C57BL/6 mice = settings: prophylactic oral administration, 1 mg/kg, three times a week; cited from earlier work

S1P3 receptor, sequence (Q99500 whole entry): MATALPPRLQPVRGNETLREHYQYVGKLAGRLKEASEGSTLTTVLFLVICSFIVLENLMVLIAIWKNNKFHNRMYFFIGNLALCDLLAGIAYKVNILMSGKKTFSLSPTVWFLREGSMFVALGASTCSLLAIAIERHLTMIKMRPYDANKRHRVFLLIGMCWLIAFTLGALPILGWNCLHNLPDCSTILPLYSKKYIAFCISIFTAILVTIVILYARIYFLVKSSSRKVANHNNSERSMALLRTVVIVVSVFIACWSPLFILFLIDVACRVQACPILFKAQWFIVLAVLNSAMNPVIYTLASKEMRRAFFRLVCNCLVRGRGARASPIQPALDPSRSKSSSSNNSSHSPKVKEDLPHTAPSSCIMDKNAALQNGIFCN

Compound	delay of time of rejection of the skin allograft [1]	severity of disease symptoms in EAE (Female C57BL/6 mice)	incidence of diabetes / promotion of normoglycemia (female NOD/Ltj mice)	mean ankle diameter (Female Lewis rats)	ocular infiltrates [2]	number of lesions detected by MRI and clinical disease activity [3]	adverse event in clinical trials (S1P3 receptor)	VEGF-induced vascular permeability (mice)	development of EAMG (C57BL/6 mice)
N#Cc1cc(OC(F)(F)F)cc(-c2nc(-c3ccc4[nH]c5c(c4c3)CCC5CC(=O)O)no2)c1 (stereo not drawn) [2nd enantiomer of Compound 7, 2-(7-(5-(3-cyano-5-(trifluoromethoxy)phenyl)-1,2,4-oxadiazol-3-yl)-1,2,3,4-tetrahydrocyclopenta[b]indol-3-yl)acetic acid]	exhibited activity in the mouse skin allograft assay	exhibited activity in the mouse EAE assay	exhibited activity in the NOD mouse type I diabetes assay	exhibited activity for reducing mean ankle diameter in the rat					
CCCCCCCCc1ccc(CCC(N)(CO)CO)cc1 [FTY720]					rapidly reduced ocular infiltrates	reduce the number of lesions detected by magnetic resonance imaging (MRI) and clinical disease activity	transient asymptomatic bradycardia	potently blocked VEGF-induced vascular permeability	completely prevented the development of experimental autoimmune myasthenia gravis (EAMG)
